In ChEMBL document CHEMBL1781986, “Structure-activity relationships of pyrrole based S-nitrosoglutathione reductase inhibitors: pyrrole regioisomers and propionic acid replacement” (Bioorg Med Chem Lett, 2011):
Active and inactive are the calls of the source. The rule behind the calls is not given here.

Legend:
[1] = biological target: Adenosine receptor A2a (Homo sapiens) (UniProt P29274); assay: Inhibition of human recombinant A2a receptor at 10 uM by radioligand binding assay
[2] = biological target: Adrenergic receptor alpha-1 (Homo sapiens) (UniProt P35348+P25100+P35368); assay: Inhibition of human recombinant alpha1 receptor at 10 uM by radioligand binding assay
[3] = biological target: Adrenergic receptor alpha-2 (Homo sapiens) (UniProt P08913+P18825+P18089); assay: Inhibition of human recombinant alpha2 receptor at 10 uM by radioligand binding assay
[4] = biological target: Cannabinoid receptor 1 (Homo sapiens) (UniProt P21554); assay: Inhibition of human recombinant CB1 receptor at 10 uM by radioligand binding assay
[5] = biological target: D(2) dopamine receptor (Homo sapiens) (UniProt P14416); assay: Inhibition of human recombinant D2S receptor at 10 uM by radioligand binding assay
[6] = biological target: T1, Endothelin-1 receptor (Homo sapiens) (UniProt P25101); assay: Inhibition of human recombinant ETA receptor at 10 uM by radioligand binding assay
T1 sequence (whole entry): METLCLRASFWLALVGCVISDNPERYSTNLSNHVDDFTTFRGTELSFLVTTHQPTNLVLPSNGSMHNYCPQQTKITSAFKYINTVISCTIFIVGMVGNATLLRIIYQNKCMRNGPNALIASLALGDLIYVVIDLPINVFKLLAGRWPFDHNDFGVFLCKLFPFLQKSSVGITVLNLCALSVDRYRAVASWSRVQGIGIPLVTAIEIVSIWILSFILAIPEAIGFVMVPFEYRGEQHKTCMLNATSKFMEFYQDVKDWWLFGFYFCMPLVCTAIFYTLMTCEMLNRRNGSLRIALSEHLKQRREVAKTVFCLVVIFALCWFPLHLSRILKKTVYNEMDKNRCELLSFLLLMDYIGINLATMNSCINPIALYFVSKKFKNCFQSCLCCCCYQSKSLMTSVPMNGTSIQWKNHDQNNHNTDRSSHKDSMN

[7] = biological target: T2, Galanin receptor type 2 (Homo sapiens) (UniProt O43603); assay: Inhibition of human recombinant GAL2 receptor at 10 uM by radioligand binding assay
T2 sequence (whole entry): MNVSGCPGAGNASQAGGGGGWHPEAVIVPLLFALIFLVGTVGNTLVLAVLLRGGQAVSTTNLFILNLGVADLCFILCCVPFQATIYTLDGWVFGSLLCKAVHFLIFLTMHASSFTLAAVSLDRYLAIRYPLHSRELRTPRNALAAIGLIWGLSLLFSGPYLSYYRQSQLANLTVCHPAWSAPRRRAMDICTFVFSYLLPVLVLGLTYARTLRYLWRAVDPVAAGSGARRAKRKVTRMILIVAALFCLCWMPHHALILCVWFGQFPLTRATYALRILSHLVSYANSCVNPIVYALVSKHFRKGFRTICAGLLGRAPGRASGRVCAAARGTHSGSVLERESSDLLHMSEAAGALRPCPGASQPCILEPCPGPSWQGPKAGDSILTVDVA

[8] = biological target: T3, C-C chemokine receptor type 1 (Homo sapiens) (UniProt P32246); assay: Inhibition of human recombinant CCR1 receptor at 10 uM by radioligand binding assay
T3 sequence (whole entry): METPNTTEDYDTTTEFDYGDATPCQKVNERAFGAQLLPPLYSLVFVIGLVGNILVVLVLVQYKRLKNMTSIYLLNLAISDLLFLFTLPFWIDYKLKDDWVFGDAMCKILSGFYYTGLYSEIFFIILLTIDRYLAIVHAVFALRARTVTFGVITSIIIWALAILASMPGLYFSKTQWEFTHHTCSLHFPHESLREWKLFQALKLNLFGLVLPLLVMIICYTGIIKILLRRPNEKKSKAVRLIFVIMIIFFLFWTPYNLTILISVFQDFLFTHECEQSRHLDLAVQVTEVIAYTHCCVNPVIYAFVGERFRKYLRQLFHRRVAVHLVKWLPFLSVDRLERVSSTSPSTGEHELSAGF

[9] = biological target: Histamine H2 receptor (Homo sapiens) (UniProt P25021); assay: Inhibition of human recombinant H2 receptor at 10 uM by radioligand binding assay
[10] = biological target: Melatonin receptor type 1A (Homo sapiens) (UniProt P48039); assay: Inhibition of human recombinant MT1 receptor at 10 uM by radioligand binding assay
[11] = biological target: T4, Muscarinic acetylcholine receptor M1 (Homo sapiens) (UniProt P11229); assay: Inhibition of human recombinant M1 receptor at 10 uM by radioligand binding assay
T4 sequence (whole entry): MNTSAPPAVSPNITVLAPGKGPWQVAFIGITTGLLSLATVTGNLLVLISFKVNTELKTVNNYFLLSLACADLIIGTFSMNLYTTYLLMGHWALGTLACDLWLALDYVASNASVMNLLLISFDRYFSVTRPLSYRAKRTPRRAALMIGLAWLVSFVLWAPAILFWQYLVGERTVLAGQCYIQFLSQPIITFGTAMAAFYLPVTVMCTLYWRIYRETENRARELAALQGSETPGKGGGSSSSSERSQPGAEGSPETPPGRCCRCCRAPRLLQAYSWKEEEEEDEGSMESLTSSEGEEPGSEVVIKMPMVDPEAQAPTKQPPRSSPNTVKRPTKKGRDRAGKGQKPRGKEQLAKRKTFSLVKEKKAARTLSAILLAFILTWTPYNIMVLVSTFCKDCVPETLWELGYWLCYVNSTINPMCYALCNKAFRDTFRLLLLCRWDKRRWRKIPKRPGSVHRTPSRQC

[12] = biological target: T5, Muscarinic acetylcholine receptor M2 (Homo sapiens) (UniProt P08172); assay: Inhibition of human recombinant M2 receptor at 10 uM by radioligand binding assay
T5 sequence (whole entry): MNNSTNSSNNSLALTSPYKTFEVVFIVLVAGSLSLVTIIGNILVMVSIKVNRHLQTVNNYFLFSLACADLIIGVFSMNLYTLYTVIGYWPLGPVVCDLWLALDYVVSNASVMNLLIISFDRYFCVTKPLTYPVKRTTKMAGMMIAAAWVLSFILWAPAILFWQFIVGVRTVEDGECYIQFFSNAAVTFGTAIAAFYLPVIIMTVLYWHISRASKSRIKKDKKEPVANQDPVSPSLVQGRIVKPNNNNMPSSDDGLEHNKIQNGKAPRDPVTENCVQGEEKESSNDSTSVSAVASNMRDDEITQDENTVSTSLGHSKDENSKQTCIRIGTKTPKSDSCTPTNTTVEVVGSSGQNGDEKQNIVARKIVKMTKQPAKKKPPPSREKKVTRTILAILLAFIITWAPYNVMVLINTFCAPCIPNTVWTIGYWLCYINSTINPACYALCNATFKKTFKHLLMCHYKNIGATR

[13] = biological target: Kappa-type opioid receptor (Homo sapiens) (UniProt P41145); assay: Inhibition of human recombinant KOP receptor at 10 uM by radioligand binding assay
[14] = biological target: Small conductance calcium-activated potassium channel protein 1 (Homo sapiens) (UniProt Q92952); assay: Inhibition of human recombinant Skca channel at 10 uM by radioligand binding assay
[15] = biological target: Neuropeptide Y receptor type 2 (Homo sapiens) (UniProt P49146); assay: Inhibition of human recombinant Y2 receptor at 10 uM by radioligand binding assay
Neuropeptide Y receptor type 2 (Homo sapiens), sequence (P49146 whole entry, looked up): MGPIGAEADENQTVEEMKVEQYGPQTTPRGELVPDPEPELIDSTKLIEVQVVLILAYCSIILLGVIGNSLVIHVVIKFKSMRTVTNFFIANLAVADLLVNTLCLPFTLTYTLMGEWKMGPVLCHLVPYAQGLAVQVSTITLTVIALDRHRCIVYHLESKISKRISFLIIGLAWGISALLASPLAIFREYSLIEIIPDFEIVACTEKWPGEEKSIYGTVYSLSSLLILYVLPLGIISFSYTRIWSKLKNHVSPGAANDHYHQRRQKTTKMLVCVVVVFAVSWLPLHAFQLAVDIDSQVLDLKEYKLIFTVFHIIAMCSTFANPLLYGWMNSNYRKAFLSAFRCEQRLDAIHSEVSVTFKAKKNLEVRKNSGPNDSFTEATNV

Cannabinoid receptor 1 (Homo sapiens), sequence (P21554 whole entry): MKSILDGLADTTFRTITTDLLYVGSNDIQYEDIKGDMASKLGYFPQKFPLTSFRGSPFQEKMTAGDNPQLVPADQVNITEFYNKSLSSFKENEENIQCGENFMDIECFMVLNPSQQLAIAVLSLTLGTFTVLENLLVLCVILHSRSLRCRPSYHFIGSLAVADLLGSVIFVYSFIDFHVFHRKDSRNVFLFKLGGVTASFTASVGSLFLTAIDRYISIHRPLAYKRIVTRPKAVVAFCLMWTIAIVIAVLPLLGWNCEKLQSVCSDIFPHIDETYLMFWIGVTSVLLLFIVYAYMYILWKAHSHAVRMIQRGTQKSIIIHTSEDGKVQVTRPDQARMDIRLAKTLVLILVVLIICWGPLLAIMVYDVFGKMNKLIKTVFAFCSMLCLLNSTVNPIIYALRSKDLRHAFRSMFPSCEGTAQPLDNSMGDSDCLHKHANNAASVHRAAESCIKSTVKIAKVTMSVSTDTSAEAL
Adenosine receptor A2a (Homo sapiens), sequence (P29274 whole entry): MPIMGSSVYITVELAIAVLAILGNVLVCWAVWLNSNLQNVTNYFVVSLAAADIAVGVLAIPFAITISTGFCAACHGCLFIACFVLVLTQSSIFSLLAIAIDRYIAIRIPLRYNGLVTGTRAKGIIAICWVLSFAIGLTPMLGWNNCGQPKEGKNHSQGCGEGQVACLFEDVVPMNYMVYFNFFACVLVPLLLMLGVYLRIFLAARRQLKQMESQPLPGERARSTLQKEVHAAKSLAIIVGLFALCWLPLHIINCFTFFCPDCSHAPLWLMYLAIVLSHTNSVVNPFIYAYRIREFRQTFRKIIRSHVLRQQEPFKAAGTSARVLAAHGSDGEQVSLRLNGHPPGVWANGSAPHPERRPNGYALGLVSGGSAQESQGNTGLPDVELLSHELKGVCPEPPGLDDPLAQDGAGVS
Melatonin receptor type 1A (Homo sapiens), sequence (P48039 whole entry): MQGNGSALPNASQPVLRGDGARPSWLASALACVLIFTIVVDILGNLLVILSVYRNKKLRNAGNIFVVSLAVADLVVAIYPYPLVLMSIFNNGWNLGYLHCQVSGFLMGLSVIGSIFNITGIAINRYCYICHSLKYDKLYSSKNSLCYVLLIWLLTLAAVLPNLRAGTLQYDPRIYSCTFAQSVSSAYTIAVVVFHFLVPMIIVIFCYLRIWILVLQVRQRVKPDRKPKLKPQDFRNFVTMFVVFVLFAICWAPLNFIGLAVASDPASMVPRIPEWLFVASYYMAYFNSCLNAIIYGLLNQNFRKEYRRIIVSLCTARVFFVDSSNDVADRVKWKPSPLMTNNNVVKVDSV
D(2) dopamine receptor (Homo sapiens), sequence (P14416 whole entry): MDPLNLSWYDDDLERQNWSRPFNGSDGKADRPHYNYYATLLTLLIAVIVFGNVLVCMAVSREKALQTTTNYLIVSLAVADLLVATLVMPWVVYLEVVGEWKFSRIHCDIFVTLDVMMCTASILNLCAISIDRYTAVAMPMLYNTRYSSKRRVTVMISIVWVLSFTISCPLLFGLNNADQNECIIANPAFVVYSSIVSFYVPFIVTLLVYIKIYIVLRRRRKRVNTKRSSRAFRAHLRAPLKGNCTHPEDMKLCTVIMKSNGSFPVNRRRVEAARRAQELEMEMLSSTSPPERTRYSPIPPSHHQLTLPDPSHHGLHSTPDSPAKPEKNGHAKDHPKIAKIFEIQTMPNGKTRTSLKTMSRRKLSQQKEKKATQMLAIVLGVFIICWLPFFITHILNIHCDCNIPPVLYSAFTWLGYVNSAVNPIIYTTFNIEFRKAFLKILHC
Kappa-type opioid receptor (Homo sapiens), sequence (P41145 whole entry): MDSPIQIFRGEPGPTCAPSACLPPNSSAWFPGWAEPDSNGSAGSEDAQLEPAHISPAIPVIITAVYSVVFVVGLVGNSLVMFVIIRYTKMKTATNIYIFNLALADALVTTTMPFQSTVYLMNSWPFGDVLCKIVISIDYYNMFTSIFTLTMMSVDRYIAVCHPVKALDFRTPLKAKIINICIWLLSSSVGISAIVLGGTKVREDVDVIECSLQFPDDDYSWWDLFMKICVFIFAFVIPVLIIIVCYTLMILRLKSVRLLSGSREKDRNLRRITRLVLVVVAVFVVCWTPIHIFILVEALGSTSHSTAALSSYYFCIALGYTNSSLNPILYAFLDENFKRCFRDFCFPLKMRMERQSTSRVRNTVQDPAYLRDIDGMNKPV
Histamine H2 receptor (Homo sapiens), sequence (P25021 whole entry): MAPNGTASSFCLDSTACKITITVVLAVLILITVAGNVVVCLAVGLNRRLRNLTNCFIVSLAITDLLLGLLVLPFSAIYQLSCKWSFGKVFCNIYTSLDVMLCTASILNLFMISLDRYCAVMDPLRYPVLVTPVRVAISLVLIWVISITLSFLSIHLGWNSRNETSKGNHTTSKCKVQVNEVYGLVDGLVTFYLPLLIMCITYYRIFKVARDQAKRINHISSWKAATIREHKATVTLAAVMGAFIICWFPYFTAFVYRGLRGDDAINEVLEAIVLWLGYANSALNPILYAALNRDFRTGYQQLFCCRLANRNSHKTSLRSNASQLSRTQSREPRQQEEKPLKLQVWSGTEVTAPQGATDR
Small conductance calcium-activated potassium channel protein 1 (Homo sapiens), sequence (Q92952 whole entry): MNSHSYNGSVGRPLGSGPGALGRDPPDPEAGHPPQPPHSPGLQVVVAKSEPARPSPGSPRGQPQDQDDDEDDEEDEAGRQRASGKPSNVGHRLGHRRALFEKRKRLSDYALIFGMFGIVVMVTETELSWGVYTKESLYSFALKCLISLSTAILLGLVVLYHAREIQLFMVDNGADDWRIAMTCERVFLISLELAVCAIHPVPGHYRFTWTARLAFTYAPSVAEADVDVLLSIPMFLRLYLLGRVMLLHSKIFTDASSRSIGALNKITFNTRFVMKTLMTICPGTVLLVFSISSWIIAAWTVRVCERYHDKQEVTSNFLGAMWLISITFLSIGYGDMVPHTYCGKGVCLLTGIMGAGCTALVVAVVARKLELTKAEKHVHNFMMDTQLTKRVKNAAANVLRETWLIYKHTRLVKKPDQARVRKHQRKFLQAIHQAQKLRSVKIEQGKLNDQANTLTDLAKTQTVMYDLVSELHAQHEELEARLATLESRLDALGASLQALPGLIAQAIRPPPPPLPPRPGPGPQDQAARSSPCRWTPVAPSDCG

Row | inhibition [1] | inhibition [2] | inhibition [3] | inhibition [4] | inhibition [5] | inhibition [6] | inhibition [7] | inhibition [8] | inhibition [9] | inhibition [10] | inhibition [11] | inhibition [12] | inhibition [13] | inhibition [14] | inhibition [15] | SMILES
1 | inactive | inactive | inactive | inactive | inactive | inactive | inactive | inactive | inactive | inactive | inactive | inactive | inactive | inactive | inactive | Cc1cc(C(N)=O)ccc1-n1c(CCC(=O)O)ccc1-c1ccc(-n2ccnc2)cc1 [N6022]
2 | inactive | inactive | inactive | inactive | inactive | inactive | inactive | inactive | inactive | inactive | inactive | inactive | inactive | inactive | inactive | Cc1cc(C(N)=O)ccc1-c1c(-c2ccc(-n3ccnc3)cc2)ccn1CCC(=O)O
3 | Active | Active | Active | Active | Active | Active | Active | Active | Active | Active | Active | Active | Active | Active | Active | COc1ccc(-c2ccn(-c3ccc(C(=O)O)c(O)c3)c2-c2ccc(C(N)=O)cc2C)cc1
4 | inactive | inactive | inactive | inactive | inactive | inactive | inactive | inactive | inactive | inactive | inactive | inactive | inactive | inactive | inactive | Cc1cc(C(N)=O)ccc1-c1c(CCC(=O)O)ccn1-c1ccc(-n2ccnc2)cc1
5 | Active | Active | Active | Active | Active | Active | Active | Active | Active | Active | Active | Active | Active | Active | Active | COc1ccc(-c2ccn(-c3ccc(O)c([N+](=O)[O-])c3)c2-c2ccc(C(N)=O)cc2C)cc1
